Test results from patent US9073876B2, “Flap modulators” (JANSSEN PHARMACEUTICA NV, priority 2013, dated 2015).
Where a name gives a salt, the structure may show the parent alone.

Assays:
human FLAP = human FLAP (Homo sapiens (Human), UniProt P20292); test: FLAP binding assay (HTRF); conditions: human FLAP-containing membranes, HTRF format; average of two assay plates, duplicates; read-out: FLAP Binding wild type HTRF Ki
How it was run: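 Binding of compounds to FLAP read out as HTRF ratio. Values are the mean of two assay plates, each sample run in duplicate per plate.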

[1] = test system: leukotriene pathway in human whole blood (LTB4 levels); test: Human whole blood assay (LTB4); format: cell-based; conditions: human whole blood diluted 1:1 in RPMI, stimulated with calcium ionophore A23187; single replicate
How it was run: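 Compounds are pre-incubated 15 min at 37° Celsius in RPMI-diluted (1:1) heparinised whole blood before a 30 min A23187 stimulus (7 μg/mL). Plasma LTB4 is read by immunoassay kit, with IC50 calculated from a 4-parameter equation.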

Chain of human FLAP (P20292 whole entry): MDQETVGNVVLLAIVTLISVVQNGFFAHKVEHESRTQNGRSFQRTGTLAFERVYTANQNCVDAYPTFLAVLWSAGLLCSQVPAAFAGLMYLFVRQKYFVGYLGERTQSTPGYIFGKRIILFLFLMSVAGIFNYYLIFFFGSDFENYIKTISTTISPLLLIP

Structure (SMILES)	Ki (human FLAP)	IC50 [1]
Nc1cnc(-c2ccc(C3CCC3)c(Oc3nccc(C(=O)O)n3)c2F)cn1 [Example 152, 2-[3-(5-Aminopyrazin-2-yl)-6-cyclobutyl-2-fluorophenoxy]pyrimidine-4-carboxylic acid]	62.5 nM	> 10000 nM
Nc1cnc(-c2ccc(C3CCC3)c(OCCNc3ccncn3)c2F)cn1 [Example 297, N-{2-[3-(5-Aminopyrazin-2-yl)-6-cyclobutyl-2-fluorophenoxy]ethyl}pyrimidin-4-amine]	14.4 nM	263 nM
Nc1cnc(-c2ccc(C3CCC3)c(Oc3cc(Cl)nc(N)n3)c2F)cn1 [Example 143, 4-[3-(5-Aminopyrazin-2-yl)-6-cyclobutyl-2-fluorophenoxy]-6-chloropyrimidin-2-amine]	2.9 nM	37.7 nM
CC(C)(C)c1ccc(-c2cnc(N)nc2)c(F)c1Oc1cc(N)ncn1 [Example 208, 5-{3-[(6-Aminopyrimidin-4-yl)oxy]-4-tert-butyl-2-fluorophenyl}pyrimidin-2-amine]	46.5 nM	215 nM
Cc1cc(Oc2c(C3CCC3)ccc(-c3cnc(N)cn3)c2F)ccc1S(C)(=O)=O [Example 126, 5-{4-Cyclobutyl-2-fluoro-3-[3-methyl-4-(methylsulfonyl)phenoxy]phenyl}pyrazin-2-amine]	10.7 nM	406 nM
Nc1cnc(-c2ccc(C3CCC3)c(Oc3ccc(C(F)(F)F)nn3)c2F)cn1 [Example 106, 5-(4-Cyclobutyl-2-fluoro-3-{[6-(trifluoromethyl)pyridazin-3-yl]oxy}phenyl)pyrazin-2-amine]	84 nM	376 nM
Nc1cnc(-c2ccc(C3CCC3)c(Oc3nccc(-c4ccccc4)n3)c2F)cn1 [Example 87, 5-{4-Cyclobutyl-2-fluoro-3-[(4-phenylpyrimidin-2-yl)oxy]phenyl}pyrazin-2-amine]	1 nM	6.7 nM
Nc1cnc(-c2ccc(C3CCC3)c(Oc3cc(-c4ccccc4)ncn3)c2F)cn1 [Example 145, 5-{4-Cyclobutyl-2-fluoro-3-[(6-phenylpyrimidin-4-yl)oxy]phenyl}pyrazin-2-amine]	5.4 nM	177 nM
Nc1cnc(-c2ccc(C3CCC3)c(Oc3cccnn3)c2F)cn1 [Example 277, 5-[4-Cyclobutyl-2-fluoro-3-(pyridazin-3-yloxy)phenyl]pyrazin-2-amine]	17.7 nM	135 nM
O=C(O)Cc1ccc(COc2c(C3CCC3)ccc(-c3cnc4c(c3)OCCN4)c2F)cc1 [Example 195, (4-{[6-cyclobutyl-3-(3,4-dihydro-2H-pyrido[3,2-b][1,4]oxazin-7-yl)-2-fluorophenoxy]methyl}phenyl)acetic acid]	2.2 nM	446 nM

Next, values leading:

Ki (human FLAP)	IC50 [1]	Structure (SMILES)
46.6 nM	576 nM	Cc1cc(COc2c(C3CCC3)ccc(-c3cnc(N)cn3)c2F)no1 [Example 291, 5-{4-Cyclobutyl-2-fluoro-3-[(5-methylisoxazol-3-yl)methoxy]phenyl}pyrazin-2-amine trifluoroacetic acid salt]
98.6 nM	1590 nM	CC(C)(C)OC(=O)N1CC(COc2c(C3CCC3)ccc(-c3cnc(N)cn3)c2F)C1 [Example 246, tert-butyl-3-((3-(5-aminopyrazin-2-yl)-6-cyclobutyl-2-fluorophenoxy)-methyl)azetidine-1-carboxylate]
12 nM	355 nM	N#Cc1cccc(COc2c(C3CCC3)ccc(-c3cnc4c(c3)OCCN4)c2F)c1 [Example 187, 3-{[6-Cyclobutyl-3-(3,4-dihydro-2H-pyrido[3,2-b][1,4]oxazin-7-yl)-2-fluorophenoxy]-methyl}-benzonitrile]
10.5 nM	65.7 nM	Nc1cnc(-c2ccc(C3CCC3)c(Oc3ncccn3)c2F)cn1 [Example 118, 5-[4-Cyclobutyl-2-fluoro-3-(pyrimidin-2-yloxy)phenyl]pyrazin-2-amine]
98 nM	467 nM	N#Cc1cccc(COc2c(C3CCC3)ccc(-c3cnc(N)cn3)c2F)c1 [Example 16, 3-{[3-(5-Aminopyrazin-2-yl)-6-cyclobutyl-2-fluorophenoxy]methyl}benzonitrile]
